# Measured values as given in patent US20110034496A1, “POST-HARVEST TREATMENT” (Bayer CropScience AG, priority 2007, published 2011).
# Experiments:
# Penicillium expansum = experiment: Apples dipped in fungicidal solution, then inoculated with Penicillium expansum spores at cuticle injuries; format: in vivo; details: for % Efficacy [Abbott] at 6 d: 6 d after inoculation; for % Efficacy [Abbott] at 10 d: 10 d after inoculation; for % Efficacy [Abbott] at 15 d: 15 d after inoculation
# Experimental: (§1) In Example 1 and Example 2 all compounds except fluopyram were applied as commercially available. 1 weight proportion of fluopyram, however, was mixed with solvents (24.5 w/w acetone, 24.5 w/w dimethylacetamid) and emulsifier (1 w/w), respectively. Afterwards, the product was diluted in water. The concentration used is indicated below. Apples were dipped in a fungicidal solution and kept in plastic boxes for drying. Afterwards 10 μl of a spore solution of Penicillium expansum has been applied to injuries of the cuticle of the fruits. The trial has been assessed at different time intervals after inoculation. The efficacy of the products has been calculated based on the fungal growth of the treated apples with reference to the inoculated untreated control. The efficacy is shown as % Abbott.
# Botrytis cinerea = experiment: Apples dipped in fungicidal solution, then inoculated with Botrytis cinerea spores at cuticle injuries; format: in vivo; details: dip 100 g a.i./1000 ltr
# Experimental: as §1, with “Botrytis cinerea” for “Penicillium expansum”, “6d and 10d” for “different time intervals”
# [1] = dip 100 g a.i./1000 ltr., Table 1b
# [2] = dip 750 g a.i./1000 ltr., Table 1b
# [3] = dip 50 g a.i./1000 ltr., Table 1b
# [4] = dip 100 g a.i./1000 ltr., Table 1a
smiles,measurement,setting,value
"O=C(NCCc1ncc(C(F)(F)F)cc1Cl)c1ccccc1C(F)(F)F [Fluopyram, N-{2-[3-chloro-5-(trifluoromethyl)pyridin-2-yl]ethyl}-2-(trifluoromethyl)-benzamide]",% Efficacy [Abbott] at 6 d,Penicillium expansum; [1],93%
same,% Efficacy [Abbott] at 10 d,Penicillium expansum; [1],90%
same,% Efficacy [Abbott] at 15 d,Penicillium expansum; [1],70%
same,% Efficacy [Abbott] at 6 d,Botrytis cinerea; 6 d after inoculation,98%
same,% Efficacy [Abbott] at 10 d,Botrytis cinerea; 10 d after inoculation,96%
"Cc1ccc(N(SC(F)(Cl)Cl)S(=O)(=O)N(C)C)cc1 [Tolylfluanid, tolylfluanid]",% Efficacy [Abbott] at 6 d,Penicillium expansum; [2],64%
same,% Efficacy [Abbott] at 10 d,Penicillium expansum; [2],60%
same,% Efficacy [Abbott] at 15 d,Penicillium expansum; [2],60%
"CON=C(C(=O)OC)c1ccccc1CON=C(C)c1cccc(C(F)(F)F)c1 [Trifloxystrobin, trifloxystrobin]",% Efficacy [Abbott] at 6 d,Penicillium expansum; [3],50%
same,% Efficacy [Abbott] at 10 d,Penicillium expansum; [3],63%
same,% Efficacy [Abbott] at 15 d,Penicillium expansum; [3],52%
"CC(C)(C)C(O)(CCc1ccc(Cl)cc1)Cn1cncn1 (centres unmarked) [Tebuconazole, tebuconazole]",% Efficacy [Abbott] at 6 d,Penicillium expansum; [4],100%
same,% Efficacy [Abbott] at 10 d,Penicillium expansum; [4],100%
same,% Efficacy [Abbott] at 14 d,"Penicillium expansum; dip 100 g a.i./1000 ltr., 14 d after inoculation, Table 1a",100%
